Here are results for 17 compounds from patent publication US8501446B2 (Vertex Pharmaceuticals Incorporated, priority 2004, dated 2013).

Bounds are passed on as bounds.

Common to all, as to format: biochemical
One test addresses Aurora-B (Homo sapiens, UniProt Q96GD4). Kind of test: Aurora-B inhibition assay, radioactive assay. The following applies: average Ki if more than one value determined. The procedure:
Compounds were screened for their ability to inhibit JAK3 using a standard radioactive enzyme assay. 1.5 μL/well of a DMSO stock containing serial dilutions of a compound of the present invention (concentrations ranging from 667 μM to 46 nM) was placed in a 96 well polycarbonate plate. 50 μL per well of kinase buffer (100 mM HEPES (pH 7.4), 10 mM MgCl2, 25 mM NaCl, 1 mM DTT, and 0.01% bovine serum albumin (BSA)) containing 2 μM poly(Glu)4Tyr and 10 μM ATP was also added to the plate. To initiate the reaction, 50 μL kinase buffer containing 2 nM JAK3 enzyme was added. Final ATP concentration was 5 μM [γ-^33P] ATP (200 μCi ^33P ATP/μmol ATP (Perkin Elmer, Cambridge, Mass.). After 20 minutes at room temperature (25° C.), the reaction was stopped by adding 50 μL 20% trichloroacetic acid (TCA)/0.4 mM ATP to each well. The entire content of each well was then transferred to a 96 well glass fiber filter plate using a TomTek Cell Harvester. After washing, 60 μL scintillation fluid was added and ^33P incorporation detected using a Perkin Elmer TopCount. After removing mean background values for all of the data points the data was fit using Prism software to obtain a Ki(app). Inhibition of JAK2 was measured as above except that final poly(Glu)4Tyr concentration was 15 μM and final ATP concentration was 12 μM.
Some compounds were screened for their ability to inhibit ROCK using a standard radioactive enzyme assay. Assays were carried out in a solution containing 100 mM HEPES (pH 7.5), 10 mM MgCl2, 25 mM NaCl, 2 mM DTT, and 1.5% DMSO. Final substrate concentrations in the assay were 13 μM [γ-^33P] ATP (25 mCi ^33P ATP/mmol ATP, Perkin Elmer, Cambridge, Mass./Sigma Chemicals, St Louis, Mo.) and 27 μM Myelin Basic Protein (MBP). Final enzyme concentration in the assay was 5 nM ROCK. Assays were carried out at room temperature. 1.5 μl of DMSO stock containing serial dilutions of the compound of the present invention (concentrations ranging from 10 μM to 2.6 nM) was placed in a 96 well plate. 50 μl of Solution 1 (100 mM HEPES (pH 7.5), 10 mM MgCl2, […]) was added to the plate. The reaction was initiated by addition of 50 μl of Solution 2 (100 mM HEPES (pH 7.5), 10 mM MgCl2, 4 mM DTT, […] and 10 nM ROCK). After 2 hours the reaction was quenched with 50 μL of 30% trichloroacetic acid (TCA, Fisher) containing 9 mM ATP. Transfer of 140 μL of the quenched reaction to a glass fiber filter plate (Corning, Cat. No. 3511) was followed by washing 3 times with 5% TCA. 50 μL of Optima Gold scintillation fluid (Perkin Elmer) was added and the plates were counted on a Top Count (Perkin Elmer). After removing mean background values for all of the data points the data was fit using Prism software to obtain a Ki(app).
An assay stock buffer solution was prepared containing all of the reagents listed above with the exception of ATP and the test compound of interest. The assay stock buffer solution (60 μl) was incubated in a 96 well plate with 2 μl of the test compound of interest at final concentrations spanning 0.002 μM to 30 μM at 30° C. for 10 min. Typically, a 12 point titration was conducted by preparing serial dilutions (from 1 mM compound stocks) with DMSO of the test compounds in daughter plates. The reaction was initiated by the addition of 5 μl of ATP (final concentration 200 μM). Rates of reaction were obtained using a Molecular Devices Spectramax plate reader (Sunnyvale, Calif.) over 10 min at 30° C. The Ki values were determined from the rate data as a function of inhibitor concentration using computerized nonlinear regression (Prism 3.0, Graphpad Software, San Diego, Calif.). Aurora-C activity was screened in a similar manner using Aurora-C protein. Aurora-B activity was screened using a radioactive assay, such as described in Examples 1 and 2, but using Aurora-B protein.

In test [1] the target is T1, full length Aurora-A (AA 1-403) (Homo sapiens, UniProt O14965).
T1 construct: full length Aurora-A (AA 1-403)
T1 sequence (O14965 1-403): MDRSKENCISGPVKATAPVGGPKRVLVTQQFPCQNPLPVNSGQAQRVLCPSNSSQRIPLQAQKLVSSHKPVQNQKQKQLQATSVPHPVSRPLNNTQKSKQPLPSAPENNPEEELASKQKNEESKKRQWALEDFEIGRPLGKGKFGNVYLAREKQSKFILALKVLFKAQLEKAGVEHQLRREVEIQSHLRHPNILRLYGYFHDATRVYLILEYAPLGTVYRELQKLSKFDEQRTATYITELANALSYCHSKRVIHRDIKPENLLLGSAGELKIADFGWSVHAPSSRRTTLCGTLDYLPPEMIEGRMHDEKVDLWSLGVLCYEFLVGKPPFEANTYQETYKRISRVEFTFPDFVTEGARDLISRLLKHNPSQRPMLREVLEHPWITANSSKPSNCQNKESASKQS
Put plainly: Aurora-A inhibition assay, standard coupled enzyme system. The conditions noted are these: average Ki if more than one value determined.

The next test addresses JAK2 (Homo sapiens, UniProt O60674). Put plainly: JAK2 inhibition assay (radioactive enzyme assay, as for JAK3). The conditions noted are these: average Ki if more than one value determined. Put shortly: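 Both kinases: poly(Glu)4Tyr substrate in 100 mM HEPES pH 7.4, 10 mM MgCl2, 1 mM DTT. Run 20 min at 25° C, TCA stop, filter-bound ³³P counted, Ki(app) fitted after background subtraction. JAK3: final [γ-³³P]ATP 5 μM, enzyme added as 2 nM solution. JAK2: final poly(Glu)4Tyr 15 μM, final ATP 12 μM.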

For another test, the target named is T2, ROCK I (AA 6-553) (Homo sapiens, UniProt Q13464).
T2 construct: ROCK I (AA 6-553)
Put plainly: ROCK inhibition assay, standard coupled enzyme system ("Enzyme"). The following applies: enzyme-linked assay. Put shortly:
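ROCK I (AA 6-553) at 45 nM and 30 °C with 45 μM ATP and 200 μM peptide, in 100 mM HEPES pH 7.5, 10 mM MgCl2, 25 mM NaCl, 2 mM DTT, 1.5% DMSO. ADP output read by a PK/LDH coupled system: 2.5 mM PEP, 350 μM NADH, 30 μg/ml PK, 10 μg/ml LDH.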

Usually Ki stands for a dissociation constant, usually derived from enzyme kinetics or from competition with a known ligand.

T2 sequence (Q13464 6-553, species assumed): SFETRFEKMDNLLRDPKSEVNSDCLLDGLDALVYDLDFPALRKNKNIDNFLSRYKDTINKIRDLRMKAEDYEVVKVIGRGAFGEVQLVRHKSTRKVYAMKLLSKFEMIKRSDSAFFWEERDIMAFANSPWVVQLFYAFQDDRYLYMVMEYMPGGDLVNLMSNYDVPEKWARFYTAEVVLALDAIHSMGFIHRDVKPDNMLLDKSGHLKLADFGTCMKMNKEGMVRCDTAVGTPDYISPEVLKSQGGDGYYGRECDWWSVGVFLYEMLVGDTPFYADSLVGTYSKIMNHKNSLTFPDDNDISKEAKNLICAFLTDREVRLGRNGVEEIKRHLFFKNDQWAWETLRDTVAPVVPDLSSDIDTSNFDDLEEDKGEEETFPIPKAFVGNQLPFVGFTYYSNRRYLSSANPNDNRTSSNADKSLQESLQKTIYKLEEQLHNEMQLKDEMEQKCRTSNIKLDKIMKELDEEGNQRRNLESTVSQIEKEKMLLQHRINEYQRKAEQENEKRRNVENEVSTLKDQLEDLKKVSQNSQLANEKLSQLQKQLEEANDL
Aurora-B, sequence (Q96GD4 whole entry): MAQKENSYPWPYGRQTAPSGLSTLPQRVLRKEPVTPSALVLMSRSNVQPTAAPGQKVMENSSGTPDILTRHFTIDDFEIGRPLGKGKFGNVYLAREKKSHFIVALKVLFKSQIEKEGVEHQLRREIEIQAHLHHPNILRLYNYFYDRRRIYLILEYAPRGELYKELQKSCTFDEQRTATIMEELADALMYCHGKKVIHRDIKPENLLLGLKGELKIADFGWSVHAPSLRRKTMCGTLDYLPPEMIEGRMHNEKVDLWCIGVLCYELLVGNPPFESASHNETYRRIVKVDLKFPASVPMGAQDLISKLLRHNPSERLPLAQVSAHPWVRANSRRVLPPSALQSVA
JAK2, sequence (O60674 whole entry, species assumed): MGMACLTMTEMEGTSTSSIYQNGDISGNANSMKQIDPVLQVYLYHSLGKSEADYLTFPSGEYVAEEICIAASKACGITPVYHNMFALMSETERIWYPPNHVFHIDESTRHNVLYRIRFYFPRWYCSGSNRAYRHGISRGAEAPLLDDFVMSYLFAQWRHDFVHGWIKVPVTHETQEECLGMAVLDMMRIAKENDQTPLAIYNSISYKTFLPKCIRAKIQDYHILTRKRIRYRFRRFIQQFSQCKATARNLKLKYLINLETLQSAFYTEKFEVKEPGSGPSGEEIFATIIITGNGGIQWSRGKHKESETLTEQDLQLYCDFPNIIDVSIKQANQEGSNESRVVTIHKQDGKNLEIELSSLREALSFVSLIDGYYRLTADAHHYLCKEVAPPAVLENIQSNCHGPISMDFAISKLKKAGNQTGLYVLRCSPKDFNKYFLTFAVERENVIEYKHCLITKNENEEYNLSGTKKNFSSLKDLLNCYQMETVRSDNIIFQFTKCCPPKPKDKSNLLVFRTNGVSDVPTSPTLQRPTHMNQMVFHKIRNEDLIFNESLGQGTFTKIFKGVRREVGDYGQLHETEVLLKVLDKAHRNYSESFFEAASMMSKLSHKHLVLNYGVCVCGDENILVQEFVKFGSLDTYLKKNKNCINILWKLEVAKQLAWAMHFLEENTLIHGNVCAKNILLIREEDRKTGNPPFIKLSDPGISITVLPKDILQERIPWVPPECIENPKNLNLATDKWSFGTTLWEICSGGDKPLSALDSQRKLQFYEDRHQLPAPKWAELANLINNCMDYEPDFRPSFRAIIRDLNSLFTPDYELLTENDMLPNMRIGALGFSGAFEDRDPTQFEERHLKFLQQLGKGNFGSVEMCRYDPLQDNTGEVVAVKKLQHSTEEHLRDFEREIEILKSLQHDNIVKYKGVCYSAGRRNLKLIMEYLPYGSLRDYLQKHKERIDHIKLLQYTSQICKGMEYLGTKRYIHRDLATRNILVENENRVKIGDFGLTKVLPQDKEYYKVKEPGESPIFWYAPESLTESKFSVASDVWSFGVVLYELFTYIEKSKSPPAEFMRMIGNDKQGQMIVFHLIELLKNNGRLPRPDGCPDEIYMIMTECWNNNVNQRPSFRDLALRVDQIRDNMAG

As to `C[C@H](Nc1nc(-c2c[nH]c3ncc(Cl)cc23)ncc1F)C(=O)NCCN1CCNC1=O` [Compound 441], the Ki (at Aurora-B; in test [1]; on JAK2; on ROCK I (AA 6-553)) was 0.5 to 5 µM in each case.
Turning to `C[C@H](Nc1nc(-c2c[nH]c3ncc(Cl)cc23)ncc1F)C(=O)NCCCn1ccnc1` [Compound 442], the Ki on Aurora-B is 0.5 to 5 µM; in test [1], less than 0.5 µM; at JAK2, 0.5 to 5 µM; at ROCK I (AA 6-553), 0.5 to 5 µM.
In the case of `C[C@H](Nc1nc(-c2c[nH]c3ncc(Cl)cc23)ncc1F)C(=O)NC1CCCCC1` [Compound 406], the Ki on Aurora-B was 0.5 to 5 µM; in test [1], less than 0.5 µM; on ROCK I (AA 6-553), 0.5 to 5 µM.
Regarding `CN(C)CC[C@H](Nc1nc(-c2c[nH]c3ncc(Cl)cc23)ncc1F)C(=O)N(C)C` [Compound 456], the values for the Ki (at Aurora-B; in test [1]; at ROCK I (AA 6-553)) were 0.5 to 5 µM, less than 0.5 µM and 0.5 to 5 µM, respectively.
`C[C@H](Nc1cc(NCCO)nc(-c2c[nH]c3ncc(Cl)cc23)n1)C(=O)NCC(F)(F)F` [Compound 417]: the figures for the Ki (on Aurora-B; in test [1]; at ROCK I (AA 6-553)) were less than 0.5 µM, less than 0.5 µM and 0.5 to 5 µM, respectively.
As to `C[C@H](Nc1nc(-c2c[nH]c3ncc(Cl)cc23)ncc1N)c1ccc(F)cc1` [Compound 423], the Ki on Aurora-B was less than 0.5 µM; in test [1], less than 0.5 µM; on ROCK I (AA 6-553) it was 0.5 to 5 µM.
As for `C[C@H](Nc1cc(N2CCN(C)CC2)nc(-c2c[nH]c3ncc(Cl)cc23)n1)C(=O)NCC(F)(F)F` [Compound 414], the Ki (at Aurora-B; in test [1]; at ROCK I (AA 6-553)) was 0.5 to 5 µM in each case.
Consider `C[C@H](Nc1nc(-c2c[nH]c3ncc(Cl)cc23)ncc1F)c1cccc(OC(=O)NO)c1` [Compound 375], for which the Ki at Aurora-B is less than 0.5 µM; in test [1], less than 0.5 µM; on ROCK I (AA 6-553), 0.5 to 5 µM.
On to `CNC(=O)[C@H](COC)Nc1nc(-c2c[nH]c3ncc(Cl)cc23)ncc1F` [Compound 388], for which the values for the Ki (on Aurora-B; in test [1]; on ROCK I (AA 6-553)) were less than 0.5 µM, less than 0.5 µM and 0.5 to 5 µM, respectively.
Take `C[C@H](Nc1cc(C(=O)N(C)C)nc(-c2c[nH]c3ncc(Cl)cc23)n1)c1ccc(F)cc1` [Compound 425]: the figures for the Ki (on Aurora-B; in test [1]; at ROCK I (AA 6-553)) were less than 0.5 µM, less than 0.5 µM and 0.5 to 5 µM, respectively.
For `C[C@H](Nc1nc(-c2c[nH]c3ncc(Cl)cc23)ncc1F)C(=O)NCC[C@H]1CCCN1C` [Compound 448], the Ki (on Aurora-B; in test [1]; at ROCK I (AA 6-553)) was 0.5 to 5 µM in each case.
As for `C[C@H](Nc1nc(-c2c[nH]c3ncc(Cl)cc23)ncc1F)C(=O)NCCc1c[nH]c2ccccc12` [Compound 437], the values for the Ki (at Aurora-B; in test [1]; on ROCK I (AA 6-553)) were 0.5 to 5 µM, less than 0.5 µM and 0.5 to 5 µM, respectively.
Consider `C[C@H](Nc1nc(-c2c[nH]c3ncc(Cl)cc23)ncc1F)C(=O)NCCN1CCCC1` [Compound 436], for which the figures for the Ki (on Aurora-B; in test [1]; on ROCK I (AA 6-553)) were less than 0.5 µM, 0.5 to 5 µM and 0.5 to 5 µM, respectively.
In the case of `CC(C)Nc1nc(-c2c[nH]c3ncc(Cl)cc23)ncc1F` [Compound 315], the figures for the Ki (at Aurora-B; in test [1]; at ROCK I (AA 6-553)) were 0.5 to 5 µM, less than 0.5 µM and 0.5 to 5 µM, respectively.
On to `C[C@H](Nc1nc(-c2c[nH]c3ncc(Cl)cc23)ncc1[N+](=O)[O-])c1ccc(F)cc1` [Compound 422], for which the values for the Ki (on Aurora-B; in test [1]; on ROCK I (AA 6-553)) were less than 0.5 µM, less than 0.5 µM and 0.5 to 5 µM, respectively.
As to `C[C@H](Nc1nc(-c2c[nH]c3ncc(Cl)cc23)ncc1F)C(=O)NCCNC(=O)OC(C)(C)C` [Compound 426], the figures for the Ki (on Aurora-B; in test [1]; at ROCK I (AA 6-553)) were less than 0.5 µM, less than 0.5 µM and 0.5 to 5 µM, respectively.
For `COc1cccc([C@H](C)Nc2nc(-c3c[nH]c4ncc(Cl)cc34)ncc2F)c1` [Compound 305], the Ki on Aurora-B is less than 0.5 µM; in test [1] it was less than 0.5 µM; at ROCK I (AA 6-553), 0.5 to 5 µM.
